We go through two molecules from patent US20020125193A1, “Electrochemical analysis of coenzyme Q10 and reduced coenzyme Q10” (priority 2001, published 2002).

Some results are limits rather than exact numbers.

A short description of data set [1]: Solubility in 1-propanol relative to other alcohols. The format is physicochemical. The text has this: Using 1-propanol as an extracting solvent allows fast and simple sample processing. The procedure has been simplified to a single extraction and no evaporation process is needed. This allows for efficient sample handling. Extraction of CoQ10H2 and CoQ10 from a variety of biological matrices is made facile with 1-propanol, because it can be mixed with water in any proportion. […] Thus, 1-propanol is an effective extraction solvent (Table 2). The 1-propanol extract can be directly analyzed by the described HPLC-EC method. Furthermore, this procedure takes advantage of the use of CoQ9 as an internal standard. Because the levels of CoQ9 in human blood are negligible, it is desirable to spike control samples with this CoQ9 to validate the extraction process.

For data set [2] the following is noted: cited from earlier work.
Data set [3] is described as follows: Stability of CoQ10H2 in refrigerated blood samples in vacutainers. The format is physicochemical, human. How it is done: When blood samples in vacutainers are opened and kept refrigerated, the CoQ10H2:TQ10 ratios (n=30) in EDTA samples decreased by ˜30% over 7 h, whereas the CoQ10H2:TQ10 ratios in heparinized samples were stable over the same period with variation of less than 3% (median 0.949; range 0.927-0.970; n=30). There was as significant difference of CoQ10H2:TQ10 ratios in heparin in EDTA (P=0.028). The observed findings therefore reflect the effect of air-exposure on EDTA samples during the blood sampling procedure. The results also indicate that delays, in processing and analyzing EDTA samples would result in lowered and variable CoQ10H2:TQ10 ratios.
CoQ10H2 is not stable and is oxidized in air at room temperature. CoQ10H2 is unstable in whole blood, plasma and n-propanol extract when EDTA is used as anticoagulant. EDTA-anticoagulated blood loses approximately 15% of CoQ10H2 within 4 hours when stored in refrigeration (4° C.), whereas only <1% loss of CoQ10H2 occurs in heparin-anticoagulated blood under the same conditions (FIG. 6). When fresh blood samples in closed heparin vacutainers are kept refrigerated, no significant difference in CoQ10H2:TQ10 ratios was observed between samples stored for 0 h and 24 h (P=0.052). The median CoQ10H2:TQ10 ratio stored for 24 h was 0.955 (range 0.923-0.972; n=8) in comparison to the initial value of 0.964 (range 0.935-0.978; n=8). The CoQ10H2:TQ10 ratios decreased by ˜6% after 48 h and by ˜28% after 72 h. Storage of blood specimens in VACUTAINERS at +4° C. […] Okamoto et al reported the percentage of CoQ10H2 with respect to the TQ10 was constant in plasma for one day when kept at 2° C. and −10° C.

Data set [4] in a line: CoQ10H2 and TQ10 in paired heparin versus EDTA plasma samples by HPLC-EC. The format is physicochemical, human. How it is done: (§1) According to the present invention, venous blood is collected into a VACUTAINER containing heparin as anticoagulant and mixed gently by inversion 5-6 times. At this point the blood-heparin tube is securely capped, and is then placed in ice and/or kept in refrigeration prior to processing. The blood-heparin tube should be processed within 4 hours. Blood samples should not be collected in tubes containing metal chelators, such as ethylenediaminetetraacetic acid (EDTA). The blood-heparin tube is subject to centrifugation at an appropriate speed such as 3000 rpm for 10 minutes at 4° C. Heparinized plasma is separated from red blood cells and placed in a capped polypropylene tube and immediately stored at −75° C. or below until analysis.
Each frozen sample is thawed at room temperature, and 100 μl of this sample is placed in a 1.5-ml capped polypropylene tube containing 50 μl of internal standard solution (CoQ9, 2 μg/mL in 1-propanol). All the tubes are kept in an ice-bath. This is mixed with 850 μl of cold 1-propanol. The tubes are vortexed for 2 minutes on a mechanical vortexer and centrifuged for 10 min at 0-4° C. The resulting supernatant is separated from the precipitate and transferred to an autosampler glass vial. The sample vial is immediately placed in the autosampler tray at 0-4° C. […] Twenty samples can be analyzed sequentially, within 4 hours. […]

Data set [5] in a line: Stability of CoQ10H2 in frozen plasma. The format is physicochemical, human. Particulars: plasma kept frozen at −75° C. or below. How it is done:
as §1
CoQ10H2 is not stable and is oxidized in air at room temperature. CoQ10H2 is unstable in whole blood, plasma and n-propanol extract when EDTA is used as anticoagulant. EDTA-anticoagulated blood loses approximately 15% of CoQ10H2 within 4 hours when stored in refrigeration (4° C.), whereas only <1% loss of CoQ10H2 occurs in heparin-anticoagulated blood under the same conditions (FIG. 6). When fresh blood samples in closed heparin vacutainers are kept refrigerated, no significant difference in CoQ10H2:TQ10 ratios was observed between samples stored for 0 h and 24 h (P=0.052). […]

Data set [6] is described as follows: Stability of CoQ10H2 in 1-propanol extract. The format is physicochemical, human. Here is the method: Each frozen sample is thawed at room temperature, and 100 μl of this sample is placed in a 1.5-ml capped polypropylene tube containing 50 μl of internal standard solution (CoQ9, 2 μg/mL in 1-propanol). All the tubes are kept in an ice-bath. This is mixed with 850 μl of cold 1-propanol. The tubes are vortexed for 2 minutes on a mechanical vortexer and centrifuged for 10 min at 0-4° C. The resulting supernatant is separated from the precipitate and transferred to an autosampler glass vial. The sample vial is immediately placed in the autosampler tray at 0-4° C. A batch of up to 20 samples can be extracted and processed at the same time. An aliquot of 20 μl of 1-propanol extract from a vial is injected immediately onto an automated HPLC. Twenty samples can be analyzed sequentially, within 4 hours.

Turning to `COC1=C(OC)C(=O)C(C/C=C(\C)CC/C=C(\C)CC/C=C(\C)CC/C=C(\C)CC/C=C(\C)CC/C=C(\C)CC/C=C(\C)CC/C=C(\C)CC/C=C(\C)CCC=C(C)C)=C(C)C1=O` [CoQ10, ubiquinone-10, reference compound], the solubility in alcohols entry in data set [1] is “highest solubility in 1-propanol”.
With `COc1c(O)c(C)c(C/C=C(\C)CC/C=C(\C)CC/C=C(\C)CC/C=C(\C)CC/C=C(\C)CC/C=C(\C)CC/C=C(\C)CC/C=C(\C)CC/C=C(\C)CCC=C(C)C)c(O)c1OC` [CoQ10H2], the solubility in alcohols entry in data set [1] was “highest solubility in 1-propanol”. Also, the “stability in ethanol solution” value in data set [2] (extracted from plasma, prepared in ethanol solution (Okamoto et al)) is recorded as “rapidly oxidized”. For the same molecule, in data set [2] (plasma, one day, 2° C. and −10° C. (Okamoto et al)), the “percentage of CoQ10H2 with respect to the TQ10” value is listed as “constant”. Besides, in data set [2] (room temperature), the “rate of spontaneous oxidation to CoQ10” value is reported as approximately 2 nM per min. For the same molecule, the “decrease of CoQ10H2:TQ10 ratio” value in data set [3] (EDTA blood, vacutainers opened, refrigerated, over 7 h, n=30) was approximately 30%; in data set [3] (closed heparin vacutainers, refrigerated, after 48 h) it was approximately 6%; in data set [3] (closed heparin vacutainers, refrigerated, after 72 h), approximately 28%. Further, the “loss of CoQ10H2” value in data set [3] (EDTA-anticoagulated blood, within 4 hours, 4° C.) was “approximately 15%”; in data set [3] (blood in VACUTAINERS at +4° C., 24 hours), less than 3%; in data set [3] (heparin-anticoagulated blood, within 4 hours, 4° C.), less than 1%; in data set [6] (in 5 hours, 0-4° C.) it was 1%. Moreover, the figures for the “time CoQ10H2 is stable” value in data set [3] (blood in closed heparin VACUTAINERS kept refrigerated) and in data set [5] were “at least 24 hours” and “at least 6 months”, respectively. Also, the “median CoQ10H2:TQ10 ratio” value in data set [3] (closed heparin vacutainers, initial value (0 h), n=8) was 0.964; in data set [3] (closed heparin vacutainers, refrigerated, stored for 24 h, n=8), 0.955; in data set [3] (heparinized blood, vacutainers opened, refrigerated, over 7 h, n=30), 0.949. In data set [3] (heparinized blood, vacutainers opened, refrigerated, over 7 h), the “variation of CoQ10H2:TQ10 ratio” value is “less than 3%”. The “mean ratio of CoQ10H2:TQ10” value in data set [4] (EDTA-plasma) is recorded as 91.5(±4.4) %; in data set [4] (heparinized plasma) it was 97.0(±1.4) %. For the same molecule, in data set [6] (in an hour, room temperature), the CoQ10H2 oxidized is recorded as 3.75%. Also, in data set [6] (room temperature), the “rate of CoQ10H2 oxidation” value is reported as approximately 2 nM/min.
